Experimental data: the NIST ThermoML archive (doi:10.1016/j.jct.2005.10.009)

Test: molar heat capacity at constant pressure; xn = mol fraction of the nth substance listed
Conditions: 101 kPa, Liquid, Small sample (50 mg) DSC

CCCCCCCCCCO [decan-1-ol] + CCCCCCC
molar heat capacity at constant pressure [J/K/mol]
Conditions	x1 = 0.0506	x1 = 0.0979	x1 = 0.1541	x1 = 0.2543	x1 = 0.3757	x1 = 0.5378	x1 = 0.7551	x1 = 0.9008	x1 = 1
290.91 K	235.98	243.78	252.15	266.07	282.7	304.21	333.09	351.55	364.49
291.15 K	236.08	243.9	252.2	266.16	282.63	304.17	333.35	351.9	364.8
292.15 K	236.53	244.42	252.79	266.99	283.4	305.3	334.38	353.11	366.05
293.15 K	237.09	245.13	253.5	267.69	284.09	306.17	335.4	354.31	367.19
294.15 K	237.67	245.8	254.28	268.44	284.97	307.04	336.39	355.23	368.25
295.15 K	238.27	246.44	255.06	269.19	285.92	308.08	337.47	356.26	369.35
296.15 K	238.89	247.13	255.82	269.75	286.81	308.89	338.44	357.26	370.35
297.15 K	239.51	247.87	256.61	270.59	287.73	309.97	339.61	358.4	371.6
298.15 K	239.86	248.38	257.16	271.36	288.4	310.74	340.46	359.54	372.77
299.15 K	240.3	248.86	257.8	272.19	289.09	311.53	341.42	360.58	373.71
300.15 K	240.83	249.51	258.45	272.99	289.92	312.43	342.44	361.76	374.91
301.15 K	241.28	250.01	259.03	273.68	290.74	313.24	343.35	362.66	375.89
302.15 K	241.86	250.66	259.8	274.46	291.61	314.17	344.4	363.81	377.05
303.15 K	242.35	251.17	260.34	275.23	292.47	315.15	345.4	364.87	378.2
304.15 K	242.86	251.87	261.18	276.03	293.43	316.13	346.52	366.04	379.47
305.15 K	243.39	252.56	261.84	276.84	294.24	317.05	347.59	367.12	380.58
306.15 K	243.87	253.07	262.53	277.6	295.15	318	348.57	368.24	381.75
307.15 K	244.14	253.41	262.92	278.04	295.57	318.55	349.26	368.97	382.43
308.15 K	245.18	254.65	264.24	279.52	297.18	320.29	351.13	370.98	384.6
309.15 K	245.41	255.04	264.68	280.05	297.76	320.96	351.89	371.76	385.42
310.15 K	245.95	255.58	265.32	280.82	298.67	321.92	352.97	372.9	386.61
311.15 K	246.43	256.31	266.13	281.69	299.62	323.01	354.17	374.19	387.89
312.15 K	246.88	256.87	266.75	282.41	300.41	323.89	355.15	375.27	389.03
313.15 K	247.31	257.46	267.42	283.25	301.36	324.89	356.22	376.4	390.28
314.15 K	247.77	258.06	268.13	284.06	302.25	325.9	357.35	377.6	391.58
315.15 K	248.34	258.68	268.86	284.88	303.16	326.94	358.54	378.81	392.8
316.15 K	248.75	259.2	269.56	285.67	304.03	327.84	359.56	379.98	394.11
317.15 K	249.2	259.91	270.2	286.49	304.91	328.86	360.67	381.22	395.3
318.15 K	249.65	260.46	270.95	287.25	305.87	329.91	361.79	382.38	396.66
318.39 K	249.73	260.52	271.04	287.43	306.02	330.09	362.01	382.62	396.93
